From patent US11021481B2, “Substituted isoindolin-1-ones and 2,3-dihydro-1h-pyrrolo[3,4-c]pyridin-1-ones as HPK1 antagonists” (Nimbus Saturn, Inc., priority 2019, dated 2021)

Molecular target: HPK1 (Homo sapiens (Human), UniProt Q92918)
Experiment: HPK1 biochemical enzyme assay (microfluidic mobility shift assay)
Conditions: 1.5 nM HPK1, ATP 1 mM final, 30 min preincubation, 60 min at RT, Caliper EZ Reader; read-out: HPK1 1000UMATP caliper IC50
Protocol: HPK1 biochemical enzyme assay: HPK1 enzyme inhibition was measured using a microfluidic mobility shift assay. […] Test compounds were titrated in ten point curves (top final assay concentration 3 μM), and preincubated with enzyme/substrate mix for 30 min prior to initiation of the reaction by addition of ATP (1 mM final concentration) and substrate (1 μM final concentration; Carna Biosciences) diluted in assay buffer supplemented by MgCl2 (final assay concentration of 5 mM). Following 60 min incubation at RT, the reaction was terminated by addition of 60 µl/well termination buffer (Carna Biosciences) and signal determination using aCaliper EZ Reader (Perkin Elmer, UK).
The compound numbers correspond to the compound numbers in Table 1.

Chain of HPK1 (Q92918 whole entry): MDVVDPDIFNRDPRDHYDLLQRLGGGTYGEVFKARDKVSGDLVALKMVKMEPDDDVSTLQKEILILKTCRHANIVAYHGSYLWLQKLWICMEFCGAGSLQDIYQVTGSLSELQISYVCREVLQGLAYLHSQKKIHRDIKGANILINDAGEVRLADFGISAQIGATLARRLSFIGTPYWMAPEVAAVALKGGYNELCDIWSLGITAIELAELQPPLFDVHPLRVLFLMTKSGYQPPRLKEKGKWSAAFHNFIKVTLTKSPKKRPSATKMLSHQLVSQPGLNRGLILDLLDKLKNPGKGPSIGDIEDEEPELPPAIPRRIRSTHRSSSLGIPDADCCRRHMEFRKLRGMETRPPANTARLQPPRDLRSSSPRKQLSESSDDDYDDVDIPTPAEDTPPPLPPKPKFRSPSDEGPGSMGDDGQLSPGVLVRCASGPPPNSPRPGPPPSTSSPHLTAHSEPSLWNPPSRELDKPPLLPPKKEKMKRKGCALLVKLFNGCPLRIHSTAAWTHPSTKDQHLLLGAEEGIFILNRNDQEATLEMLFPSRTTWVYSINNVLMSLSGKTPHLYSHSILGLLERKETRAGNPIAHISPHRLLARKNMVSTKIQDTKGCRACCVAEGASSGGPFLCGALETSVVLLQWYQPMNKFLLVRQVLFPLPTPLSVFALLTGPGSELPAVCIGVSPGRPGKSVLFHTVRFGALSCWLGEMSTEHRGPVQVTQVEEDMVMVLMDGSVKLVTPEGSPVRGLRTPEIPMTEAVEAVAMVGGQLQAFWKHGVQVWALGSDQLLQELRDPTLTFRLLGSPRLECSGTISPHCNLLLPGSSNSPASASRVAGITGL

SMILES	IC50 [nM]
Cc1cnn2c(-c3ccc(Nc4ccc([C@@H]5CCOC5)c(CN(C)C)n4)c4c3CNC4=O)cnc2c1 [I-538, (S)-7-((6-((dimethylamino)-methyl)-5-(tetrahydrofuran-3-yl)pyridin-2-yl)amino)-4-(7-methylimidazo [1,2-b]pyridazin-3-yl)isoindolin-1-one]	< 100
O=C1NCc2c(-c3cncc4nccn34)ncc(Nc3ccc(N4CCC(O)CC4)cn3)c21 [I-376, 7-((5-(4-hydroxypiperidin-1-yl)pyridin-2-yl)amino)-4-(imidazo[1,2-a]pyrazin-5-yl)-2,3-dihydro-1H-pyrrolo[3,4-c]pyridin-1-one]	100 to 1000
O=C1NCc2c(-c3cnc4cc(F)ccn34)ccc(Nc3ccc([C@H]4CCOC4)c(CNCC(F)(F)F)n3)c21 [I-750, (R)-4-(7-fluoroimidazo [1,2-a]pyridin-3-yl)-7-((5-(tetrahydrofuran-3-yl)-6-(((2,2,2-trifluoroethyl)amino)methyl)pyridin-2-yl)amino)isoin-dolin-1-one]	< 100
CN1CCC(C)(c2cccc(Nc3cnc(-c4ccnc5c4ccn5C)c4c3C(=O)NC4)n2)CC1 [I-575, 7-((6-(l,4-dimethyl-piperidin-4-yl)pyridin-2-yl)amino)-4-(1-methyl-1H-pyrrolo[2,3-b]pyridin-4-yl)-2,3-dihydro-1H-pyrrolo[3,4-c]pyridin-1-one]	100 to 1000
O=C1NCc2c(-c3cnc4ccccn34)ncc(Nc3ccc(N4CCC(O)CC4)cn3)c21 [I-160, 7-[[5-(4-hydroxy-1-piperidyl)-2-pyridyl]amino]-4-imidazo[1,2-a]pyridin-3-yl-2,3-dihydropyrrolo [3,4-c]pyridin-1-one]	< 100
O=C1NCc2c(-c3cnc4cc(F)ccn34)ccc(Nc3ccc(N4CCOCC45CC5)cn3)c21 [I-335, 7-((5-(7-oxa-4-azaspiro[2.5]octan-4-yl)pyridin-2-yl)amino)-4-(7-fluoroimidazo [1,2-a]pyridin-3-yl)isoindolin-1-one]	< 100
O=C1NCc2c(-c3cnc4ccccn34)ncc(Nc3ccc(N4CCNCC4)cn3)c21 [I-63, 4-imidazo[1,2-a]pyridin-3-yl-7-[(5-piperazin-1-yl-2-pyridyl)amino]-2,3-dihydropyrrolo [3,4-c]pyridin-1-one]	< 100
Cc1ccc2c(-c3ccc(Nc4ccc(N5CCN(C)CC5)cn4)c4c3CNC4=O)cnn2c1 [I-65, 7-[[5-(4-methylpiperazin-1-yl)-2-pyridyl]amino]-4-(6-methylpyrazolo [1,5-a]pyridin-3-yl)isoindolin-1-one]	< 100
O=C1NCc2c(-c3cnc4ccc(C(F)(F)F)cn34)ccc(Nc3ccc(N4CCC(O)CC4)cn3)c21 [I-132]	> 1000
COCC1CN(c2ccc(Nc3ccc(-c4ncnc5c4ccn5C)c4c3C(=O)NC4)nc2)CCO1 (stereo in doubt) [I-650, (S)-7-((5-(2-(methoxymeth-yl)morpho-lino)pyridin-2-yl)amino)-4-(7-methyl-7H-pyrrolo[2,3-d|pyrimidin-4-yl)isoindolin-1-one]	< 100
Cn1cnc2c(-c3ccc(Nc4ccc(N5CCC(O)CC5)cn4)c4c3CNC4=O)ccnc21 [I-152, 7-[[5-(4-hydroxy-1-piperidyl)-2-pyridyl]amino]-4-(3-methylimidazo [4,5-b]pyridin-7-yl)isoindolin-1-one]	< 100
CN1CCN(c2ccc(Nc3cnc(-c4cnn5c4CCC5)c4c3C(=O)NC4)nc2)CC1 [I-254, 4-(5,6-dihydro-4H-pyrrolo[1,2-b]pyrazol-3-yl)-7-((5-(4-methylpiperazin-1-yl)pyridin-2-yl)amino)-2,3-dihydro-1H-pyrrolo[3,4-c]pyridin-1-one]	100 to 1000
COc1cc(Nc2cnc(-c3ccnc4c3ccn4C)c3c2C(=O)NC3)nc(N2CC[C@@H]3CNC[C@@H]32)c1 [I-682, 7-((6-((3aR,6aR)-hexahydro-pyrrolo[3,4-b]pyrrol-l(2H)-yl)-4-methoxypyridin-2-yl)amino)-4-(1-methyl-1H-pyrrolo[2,3-b]pyridin-4-yl)-2,3-dihydro-1H-pyrrolo[3,4-c]pyridin-1-one]	100 to 1000
Cc1ccc2c(-c3ncc(Nc4ccc(N5CCN(C)CC5)cn4)c4c3CNC4=O)c(C)[nH]c2n1 [I-17, 4-(2,6-dimethyl-1H-pyrrolo[2,3-b]pyridin-3-yl)-7-[[5-(4-methylpiperazin-1-yl)-2-pyridyl]amino]-2,3-dihydropyrrolo [3,4-c]pyridin-1-one]	> 1000
Cn1ccc2c(-c3ccc(Nc4ccc(N5CCC[C@@H](N)C5)cn4)c4c3CNC4=O)ccnc21 [I-95, 7-[[5-[(3R)-3-amino-1-piperipyl]-2-pyridyl]amino]-4-(1-methylpyrrolo [2,3-b]pyridin-4-yl)isoindolin-1-one]	< 100
CN1CCN(c2ccc(Nc3ccc(-c4c[nH]c5ccccc45)c4c3C(=O)NC4)nc2)CC1 [I-46, 4-(1H-indol-3-yl)-7-[[5-(4-methylpiperazin-1-yl)-2-pyridyl]amino] isoindolin-1-one]	< 100
Cc1ccn2c(-c3ncc(Nc4ccc(N5CCN(C)CC5)cn4)c4c3CNC4=O)cnc2c1 [I-73, 4-(7-methylimidazo [1,2-a]pyridin-3-yl)-7-[[5-(4-methylpiperazin-1-yl)-2-pyridyl]-amino]-2,3-dihydropyrrolo [3,4-c]pyridin-1-]	< 100
CC(C)(O)[C@@H]1CN(c2ccc(Nc3cnc(-c4cnc5c(C(F)F)cccn45)c4c3C(=O)NC4)nc2)CCO1 [I-475, 4-[8-(difluoromethyl)-imidazo[1,2-a]pyridin-3-yl]-7-[[5-[(2S)-2-(1-hydroxy-1-methyl-ethyl)morpholin-4-yl]-2-pyridyl]amino]-2,3-dihydropyrrolo [3,4-c]pyridin-1-one]	< 100
CN(C)Cc1nc(Nc2cnc(-c3ccnc4c3ccn4C)c3c2C(=O)NC3)ccc1N1CCO[C@H](C(C)(C)O)C1 [I-770, (S)-7-((6-((dimethylamino)-methyl)-5-(2-(2-hydroxypropan-2-yl)morpholino)pyridin-2-yl)amino)-4-(1-methyl-1H-pyrrolo[2,3-b]pyridin-4-yl)-2,3-dihydro-1H-pyrrolo[3,4-c]pyridin-1-one]	< 100
CN(C)CCc1nc(Nc2ccc(-c3cnc4cc(F)ccn34)c3c2C(=O)NC3)ccc1C1CCOCC1 [I-838, 7-((6-(2-(dimethylami-no)ethyl)-5-(tetrahydro-2H-pyran-4-yl)pyridin-2-yl)amino)-4-(7-fluoroimidazo [1,2-a]pyridin-3-yl)isoindolin-1-one]	< 100
CC(C)(O)[C@H]1CN(c2ccc(Nc3ccc(-c4cnc5cc(F)ccn45)c4c3C(=O)NC4)nc2)CCO1 [I-345, (R)-4-(7-fluoroimidazo[1,2-a]pyridin-3-yl)-7-((5-(2-(2-hydroxypropan-2-yl)morpholino)pyridin-2-yl)amino)isoindolin-1-one]	< 100
CN1CCOc2c(-c3ccc(Nc4ccc(N5CCNCC5)cn4)c4c3CNC4=O)ccnc21 [I-105, 4-(4-methyl-2,3-dihydropyrido [3,2-b][1.4]oxazin-8-yl)-7-[(5-piperazin-1-yl-2-pyridyl)amino] isoindolin-1-one]	< 100
N#Cc1ccn2c(-c3ncc(Nc4ccc(N5CCOCC5)cn4)c4c3CNC4=O)cnc2c1 [I-189, 3-[7-[(5-morpholino-2-pyridyl)-amino]-1-oxo-2,3-dihydropyrrolo [3,4-c]pyridin-4-yl]imidazo[1,2-a]pyridine-7-carbonitrile]	100 to 1000
O=C1NCc2c(-c3cnc4cc(F)ccn34)ccc(Nc3ccc([C@@H]4CCOC4)c(CN4CC[C@@H](O)C4)n3)c21 [I-784, 4-(7-fluoroimidazo [1,2-a]pyridin-3-yl)-7-((6-(((R)-3-hydroxypyrroli-din-1-yl)methyl)-5-((S)-tetrahydrofuran-3-yl)pyridin-2-yl)amino)isoin-dolin-1-one]	< 100
CN1CCN(CC2(O)CCN(c3ccc(Nc4cnc(-c5cnc6ccccn56)c5c4C(=O)NC5)nc3)CC2)CC1 [I-648, 7-((5-(4-hydroxy-4-((4-methylpiperazin-1-yl)methyl)pip-eridin-1-yl)pyridin-2-yl)amino)-4-(imidazo[1,2-a]pyridin-3-yl)-2,3-dihydro-1H-pyrrolo[3,4-c]pyridin-1-one]	< 100
O=C1NCc2c(-c3cnc4cc(F)ccn34)ccc(Nc3ccc(N4CC(O)CCC45CC5)cn3)c21 (stereo not drawn) [I-395, 4-(7-fluoroimidazo [1,2-a]pyridin-3-yl)-7-((5-(6-hydroxy-4-azaspiro[2.5]octan-4-yl)pyridin-2-yl)amino)isoin-dolin-1-one]	< 100
CC(C)(O)[C@H]1CN(c2ccc(Nc3cnc(-c4cnc5ccccn45)c4c3C(=O)NC4)nc2)CCO1 [I-470, 7-[[5-[(2R)-2-(1-hydroxy-1-methyl-ethyl)morpholin-4-yl]-2-pyridyl]amino]-4-imidazo[1,2-a]pyridin-3-yl-2,3-dihydropyrrolo [3,4-c]pyridin-1-one]	> 1000
COc1ccc2ncc(-c3ccc(Nc4ccc(N5CCC(O)CC5)cn4)c4c3CNC4=O)n2c1 [I-142, 7-[[5-(4-hydroxy-1-piperidyl)-2-pyridyl]amino]-4-(6-methoxy-imidazo[1,2-a]pyridin-3-yl)-isoindolin-1-one]	< 100
O=C1NCc2c(-c3cnc4ccccn34)ccc(Nc3ccc(N4CCNCC4)cn3)c21 [I-60, 4-imidazo[1,2-a]pyridin-3-yl-7-[(5-piperazin-1-yl-2-pyridyl)amino] isoindolin-1-one]	< 100
O=C1NCc2c(-c3cnn4c3CCCC4)ccc(Nc3ccc(N4CCC(O)CC4)cn3)c21 [I-284, 7-((5-(4-hydroxy-piperidin-1-yl)pyridin-2-yl)amino)-4-(4,5,6,7-tetrahydropyra-zolo[1,5-a]pyridin-3-yl)isoindolin-1-one]	< 100
